Data published in PMC9885526 (ACS Central Science, 2023).

Test system: SARS-CoV-2 (Omicron variant)
Assay: microbe, parasite or virus in culture
Assay type: cell-based
Details: Severe acute respiratory syndrome coronavirus 2, Caco-2

With CC(C)(C)[C@H](NC(=O)C(F)(F)F)C(=O)N1C[C@H]2[C@@H]([C@H]1C(=O)N[C@H](C#N)C[C@@H]1CCNC1=O)C2(C)C [PF-07321332, Nirmatrelvir] as the compound, how does the EC50 read?
The EC50 was 33 nM.
